Results: ChEMBL document CHEMBL3886171, “Compounds and compositions for the inhibition of NAMPT” (2015)

Target: Nicotinamide phosphoribosyltransferase (Homo sapiens, UniProt P43490)
Experiment: Biochemical Inhibition Assay: The NAMPT enzymatic reactions were carried out in Buffer A (50 mM Hepes pH 7.5, 50 mM NaCl, 5 mM MgCl2, and 1 mM THP) in 96-well V-bottom plates. The compound titrations were performed in a separate dilution plate by serially diluting the compounds in DMSO to make a 100x stock. Buffer A (89 uL) containing 33 nM of NAMPT protein was added to 1 uL of 100x compound …
Description: Biochemical Inhibition Assay: The NAMPT enzymatic reactions were carried out in Buffer A (50 mM Hepes pH 7.5, 50 mM NaCl, 5 mM MgCl2, and 1 mM THP) in 96-well V-bottom plates. The compound titrations were performed in a separate dilution plate by serially diluting the compounds in DMSO to make a 100x stock. […] The compound and enzyme mix was incubated for 15 minutes at room temperature, then 10 uL of 10x substrate and co-factors in Buffer A were added to the test well to make a final concentration of 1 uM NAM, 100 uM 5-Phospho-D-ribose 1-diphosphate (PRPP), and 2.5 mM Adenosine 5'-triphosphate (ATP). The reaction was allowed to proceed for 30 minutes at room temperature, then was quenched with the addition of 11 uL of a solution of formic acid and L-Cystathionine to make a final concentration of 1% formic acid and 10 uM L-Cystathionine.

Nicotinamide phosphoribosyltransferase, sequence (P43490 whole entry): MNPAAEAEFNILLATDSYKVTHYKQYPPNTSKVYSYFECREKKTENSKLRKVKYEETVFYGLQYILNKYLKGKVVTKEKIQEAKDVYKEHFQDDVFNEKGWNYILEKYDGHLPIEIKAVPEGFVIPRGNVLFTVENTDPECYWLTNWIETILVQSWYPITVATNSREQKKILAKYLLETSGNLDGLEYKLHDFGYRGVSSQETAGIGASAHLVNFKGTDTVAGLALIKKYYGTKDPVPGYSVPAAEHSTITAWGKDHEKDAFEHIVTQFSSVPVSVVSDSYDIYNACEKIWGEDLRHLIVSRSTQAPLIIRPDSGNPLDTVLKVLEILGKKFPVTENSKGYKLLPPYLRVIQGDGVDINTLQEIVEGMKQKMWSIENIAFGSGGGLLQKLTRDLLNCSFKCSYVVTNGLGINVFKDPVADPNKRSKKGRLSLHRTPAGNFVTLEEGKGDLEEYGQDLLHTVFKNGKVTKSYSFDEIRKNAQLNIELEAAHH

- IC50: 2.6 nM
Structure (SMILES): Cn1ncc2ccc(S(=O)(=O)c3ccc(NC(=O)/C=C/c4cccnc4)cc3)cc21
